Test results from the supplement of paper PMC13380429.

What was measured:
[1] = tested on: A549-ACE2 infected with SARS-CoV-2; test: cell count relative to DMSO; higher = less toxic; settings: 24 h
Caco-2 [2] = test: cell viability relative to DMSO; higher = less toxic; settings: 72 h
Calu-3 [3] = test: as above; settings: 72 h
HepG2 [4] = test: as above; settings: 72 h
U2OS [5] = test: as above; settings: 72 h
Vero E6 [6] = test: as above; settings: 72 h
[7] = tested on: A549-ACE2 infected with SARS-CoV-2; test: SARS-CoV-2 infection rate relative to DMSO; higher = more infection; settings: 24 h
A549-ACE2 [8] = test: drug-induced phospholipidosis relative to tamoxifen; higher = more phospholipidosis
[9] = tested on: A549-ACE2 infected with SARS-CoV-2; test: morphology score (similarity to uninfected cells); higher = more like uninfected cells; settings: 24 h
Caco-2 [10] = test: relative viability EC50 (midpoint between 100% and the lowest measured viability); higher = less toxic; settings: 72 h
Calu-3 [11] = test: as above; settings: 72 h
HepG2 [12] = test: as above; settings: 72 h
U2OS [13] = test: as above; settings: 72 h
Vero E6 [14] = test: as above; settings: 72 h
Caco-2 [15] = test: drug sensitivity score (DSS) for viability; higher = more toxic; extreme values may be limits of the assay; settings: 72 h
Calu-3 [16] = test: as above; settings: 72 h
HepG2 [17] = test: as above; settings: 72 h
U2OS [18] = test: as above; settings: 72 h
Vero E6 [19] = test: as above; settings: 72 h
A549-ACE2 [20] = test: phospholipidosis EC50; higher = less potent phospholipidosis inducer

C(#Cc1nc2ncccc2nc1OCCN1CCCC1)c1ccccc1 [GK921]
Settings	SARS-CoV-2 infection rate, [7] [%]	cell count, [1] [%]	cell viability, Caco-2 [2] [%]	cell viability, Calu-3 [3] [%]	cell viability, HepG2 [4] [%]	cell viability, U2OS [5] [%]	cell viability, Vero E6 [6] [%]	morphology score, [9]
1 nM	–	–	100	98.7	92.4	97.1	97.2	–
10 nM	–	–	98.2	90.9	99.3	95.7	97.6	–
0.1 µM	100	101	–	–	–	–	–	0.03
100 nM	–	–	101	93.1	102	99.2	94.9	–
0.3 µM	102	102	–	–	–	–	–	-0.05
1 µM	101	95	–	–	–	–	–	0.02
1000 nM	–	–	99.5	93.3	74.5	72.2	103	–
3 µM	53	86	–	–	–	–	–	0.48
10000 nM	–	–	3.8	2.5	-0.3	-0.2	0	–

drug-induced phospholipidosis [%], A549-ACE2 [8]
Settings	24 h	48 h	72 h
0.3 µM	2.77	8.46	11.7
0.833333 µM	6.24	5.53	2.54

Settings	drug sensitivity score	relative viability EC50 [nM]
Caco-2 [10]	–	3130
Caco-2 [15]	5.4	–
Calu-3 [11]	–	2610
Calu-3 [16]	6.4	–
HepG2 [12]	–	1530
HepG2 [17]	9.4	–
U2OS [13]	–	1460
U2OS [18]	9.7	–
Vero E6 [14]	–	3350
Vero E6 [19]	5.3	–

CCCCN1[C@@H]2CC[C@H]1C[C@@H](OC(c1ccc(F)cc1)c1ccc(F)cc1)C2 [JHW-007]
Settings	SARS-CoV-2 infection rate [%]	cell count [%]	cell viability [%]	morphology score	phospholipidosis EC50 [nM]
A549-ACE2 [20], 24 h	–	–	–	–	1590
A549-ACE2 [20], 48 h	–	–	–	–	3060
A549-ACE2 [20], 72 h	–	–	–	–	3560
Caco-2 [2], 1 nM	–	–	98.9	–	–
Caco-2 [2], 10 nM	–	–	98.3	–	–
Caco-2 [2], 100 nM	–	–	102	–	–
Caco-2 [2], 1000 nM	–	–	76	–	–
Caco-2 [2], 10000 nM	–	–	61.2	–	–
Calu-3 [3], 1 nM	–	–	96.8	–	–
Calu-3 [3], 10 nM	–	–	96.8	–	–
Calu-3 [3], 100 nM	–	–	98.4	–	–
Calu-3 [3], 1000 nM	–	–	96.6	–	–
Calu-3 [3], 10000 nM	–	–	28	–	–
HepG2 [4], 1 nM	–	–	96.6	–	–
HepG2 [4], 10 nM	–	–	95.1	–	–
HepG2 [4], 100 nM	–	–	96	–	–
HepG2 [4], 1000 nM	–	–	103	–	–
HepG2 [4], 10000 nM	–	–	36.1	–	–
U2OS [5], 1 nM	–	–	102	–	–
U2OS [5], 10 nM	–	–	97.9	–	–
U2OS [5], 100 nM	–	–	99.9	–	–
U2OS [5], 1000 nM	–	–	91.9	–	–
U2OS [5], 10000 nM	–	–	70.6	–	–
Vero E6 [6], 1 nM	–	–	102	–	–
Vero E6 [6], 10 nM	–	–	104	–	–
Vero E6 [6], 100 nM	–	–	100	–	–
Vero E6 [6], 1000 nM	–	–	99.3	–	–
Vero E6 [6], 10000 nM	–	–	61.8	–	–
[1], 0.1 µM	–	102	–	–	–
[1], 0.3 µM	–	106	–	–	–
[1], 1 µM	–	114	–	–	–
[1], 3 µM	–	116	–	–	–
[7], 0.1 µM	103	–	–	–	–
[7], 0.3 µM	85	–	–	–	–
[7], 1 µM	58	–	–	–	–
[7], 3 µM	20	–	–	–	–
[9], 0.1 µM	–	–	–	0.03	–
[9], 0.3 µM	–	–	–	0.4	–
[9], 1 µM	–	–	–	0.72	–
[9], 3 µM	–	–	–	0.93	–

drug-induced phospholipidosis [%], A549-ACE2 [8]
Settings	0.3 µM	0.833333 µM	3.33333 µM	6.66667 µM	10 µM
24 h	6	18.5	80.2	92.2	90
48 h	6.06	12.4	63.9	99	103
72 h	9.39	14.6	61.5	99.8	110

Settings	drug sensitivity score	relative viability EC50 [nM]
Caco-2 [15]	4.8	–
Calu-3 [11]	–	2800
Calu-3 [16]	4.5	–
HepG2 [12]	–	3440
HepG2 [17]	3.2	–
U2OS [18]	2.4	–
Vero E6 [19]	1.9	–
